Measurements from patent US7892789B2, “Method of increasing cell permeability to trehalose by recombinantly producing a trehalose transporter” (priority 2007, dated 2011).

Legend:
BmTRET1 = target: T1, BmTRET1 (Bombyx mori, UniProt A9ZSY3); assay: Trehalose uptake in Xenopus oocytes expressing BmTRET1; type: cell-based; settings: 105 mM of trehalose, 3 h
T1 construct: ORF of either Tret1, DmTret1, AmTret1, AgTret1 or BmTret1 cDNA was amplified with PCR; expressed in transfected cells; host or cells: Xenopus laevis oocytes injected with cRNA
T1 sequence (A9ZSY3 1-505): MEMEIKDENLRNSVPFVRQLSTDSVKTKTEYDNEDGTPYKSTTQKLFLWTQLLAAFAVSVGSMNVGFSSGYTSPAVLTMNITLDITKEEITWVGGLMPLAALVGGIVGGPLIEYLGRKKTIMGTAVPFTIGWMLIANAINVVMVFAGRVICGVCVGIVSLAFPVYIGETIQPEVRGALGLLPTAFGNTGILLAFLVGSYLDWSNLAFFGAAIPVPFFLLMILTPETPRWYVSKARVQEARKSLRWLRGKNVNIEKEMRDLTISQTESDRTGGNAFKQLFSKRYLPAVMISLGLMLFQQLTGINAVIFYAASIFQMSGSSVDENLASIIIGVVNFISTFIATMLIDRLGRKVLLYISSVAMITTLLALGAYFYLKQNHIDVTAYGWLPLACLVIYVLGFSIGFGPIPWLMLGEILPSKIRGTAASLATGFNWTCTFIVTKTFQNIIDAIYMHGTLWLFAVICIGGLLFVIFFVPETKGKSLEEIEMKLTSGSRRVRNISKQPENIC
Excerpt: (§1) The capped RNA (cRNA) expression vector pTRET1-XbG-ev1 series was constructed as follows: ORF of either Tret1, DmTret1, AmTret1, AgTret1 or BmTret1 cDNA was amplified with PCR using specific primers containing Bgl II site at the 5′-end on each primer, respectively. The PCR products were digested with the restriction enzymes, and cloned into the site of Bgl II in pXbG-ev1 (Preston, G. M., et al. (1992) Science 256, 385-387). ORF of hGLUT1 cDNA was obtained by digestion of pSPMM1 with BamH I, and then subcloned into the site of Bgl II in pXbG-2. Template DNAs for cRNA synthesis were amplified from the corresponding cRNA expression vectors with a high fidelity DNA polymerase, KOD—Plus—, (TOYOBO). The cRNAs were synthesized with mMESSAGE mMACHINE T7 Kit (Ambion), and then purified with RNeasy MiniElute Cleanup kit (Qiagen).
All uptake assays for zero-trans trehalose and/or other sugars were performed using Xenopus oocytes expressing TRET1 at 15° C. in MBS containing appropriate concentrations of sugars. Sugar concentrations were determined using HPLC (Watanabe, M., et al. (2002) J Exp Biol 205, 2799-2802). All assays were carried out in triplicate. […] (data not shown).
Likewise, whether these Tret1-orthologs have trehalose transport activity was examined using the Xenopus oocyte expression system incubated in 105 mM of trehalose for 3 h.

TRET1 = target: T2, TRET1 (Polypedilum vanderplanki, UniProt A5LGM7); type: cell-based
T2 construct: ORF of either Tret1, DmTret1, AmTret1, AgTret1 or BmTret1 cDNA was amplified with PCR; expressed in transfected cells; host or cells: Xenopus laevis oocytes injected with cRNA
T2 sequence (A5LGM7 1-504): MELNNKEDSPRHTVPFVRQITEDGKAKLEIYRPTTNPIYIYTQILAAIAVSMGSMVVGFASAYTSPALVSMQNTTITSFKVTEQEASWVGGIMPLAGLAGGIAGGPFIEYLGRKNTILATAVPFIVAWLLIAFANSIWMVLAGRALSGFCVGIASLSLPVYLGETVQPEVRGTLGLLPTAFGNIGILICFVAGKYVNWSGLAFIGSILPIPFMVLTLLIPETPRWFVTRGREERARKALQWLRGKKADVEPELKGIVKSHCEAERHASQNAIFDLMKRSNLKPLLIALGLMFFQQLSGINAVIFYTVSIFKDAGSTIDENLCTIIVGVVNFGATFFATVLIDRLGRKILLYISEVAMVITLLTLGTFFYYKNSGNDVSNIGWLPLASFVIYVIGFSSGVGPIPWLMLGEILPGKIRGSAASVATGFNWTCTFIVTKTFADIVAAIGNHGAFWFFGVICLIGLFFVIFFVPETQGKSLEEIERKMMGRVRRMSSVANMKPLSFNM
Excerpt: as §1
Stage V or VI oocytes were extirpated from X. laevis females, and digested ovarian lobes with 0.2% (w/v) collagenase, type II (Sigma-Aldrich) in Ca^2+-free modified Barth's saline (MBS; 88.0 mM NaCl, 1.0 mM KCl, 2.4 mM NaHCO3, 15.0 mM Tris-Cl, 0.82 mM MgSO4, […] penicillin and streptomycin, pH7.6) at 15° C. for 3 h. The oocytes were microinjected with 40 nl of either 1 ng/nl of the TRET1::AcGFP1 or AcGFP1 cRNA, or nuclease-free water (Invitrogen) as a negative control. In order to express TRET1, the oocytes were incubated in MBS (containing 0.41 mM CaCl2) for 3-4 days after injection at 15° C. Fluorescence images of the oocytes injected with the cRNA were observed and analyzed with a fluorescence microscope BZ-8000 (KEYENCE).
All uptake assays for zero-trans trehalose and/or other sugars were performed using Xenopus oocytes expressing TRET1 at 15° C. in MBS containing appropriate concentrations of sugars. Sugar concentrations were determined using HPLC (Watanabe, M., et al. (2002) J Exp Biol 205, 2799-2802). All assays were carried out in triplicate.
Xenopus oocytes expressing either TRET1 or hGLUT1 were incubated in 105 mM of various sugars for 3 h. Tre: trehalose; Mal: maltose; Suc: sucrose; Lac: lactose; MAG: methyl-a-glucopyranoside; and 2-DOG: 2-deoxy-glucose (FIG. 3B).
In General, transporters contain two sub-classes: facilitated transporters and secondary active transporters. Activities of secondary active transporters are dependent on the electrochemical membrane potential resulting from the distribution of ions such as H^+. For example, proton-dependent MAL11/AGT1 can act only under acidic extracellular conditions (Stambuk, B. U., et al. (1996) Eur J Biochem 237, 876-881). On the other hand, facilitated transporters function independently of the electrochemical membrane potential. Xenopus oocytes expressing TRET1 were incubated in 105 mM trehalose at pH 4.2 and 7.6 for 3 h.
Xenopus oocytes expressing TRET1 were incubated in 105 mM trehalose with either control buffer (Mock; 0.1% acetone), or buffer containing various concentrations of nigericin (Na^+, K^+-ionophore), valinomycin (K^+-ionophore) or CCCP (H^+-ionophore, uncoupler) for 3 h.
In general, facilitated transporters enable their substrates to flow across membranes down concentration gradients. Xenopus oocytes expressing TRET1 were first incubated in 105 mM trehalose for 3 h, and then transferred into trehalose-free buffer and trehalose content was examined over time.
Xenopus oocytes expressing TRET1 were incubated in various concentrations of trehalose for 15 min. Uptake data were fitted to the Michaelis-Menten and Eadie-Hofstee (inset of FIG. 9) equations.

Structure (SMILES): OC[C@H]1O[C@H](O[C@H]2O[C@H](CO)[C@@H](O)[C@H](O)[C@H]2O)[C@H](O)[C@@H](O)[C@@H]1O [trehalose]
- trehalose transport activity (BmTRET1): showed trehalose transport activity
- time course of trehalose uptake into oocytes expressing TRET1 (TRET1; 105 mM trehalose): increased linearly for at least 6 h
- direction of trehalose transport after reversal of concentration gradient (TRET1; 105 mM trehalose 3 h, then trehalose-free buffer): shifted from an inward to outward direction
- pH-dependency of TRET1 trehalose transport (TRET1; 105 mM trehalose, pH 4.2 and 7.6, 3 h): acted over a wide extracellular pH range
- Vmax of TRET1 for trehalose (TRET1; Xenopus oocytes expressing TRET1): 7.84±0.77 nmol/15 min/oocyte
